# Assay results taken from ChEMBL document CHEMBL1128913, “Synthesis and in vitro cytotoxicity of cryptophycins and related analogs” (Bioorg Med Chem Lett, 1996).
# What was measured:
# Assay type in all cases: functional, cell-based
# [1] = test system: B16-F10; assay: Cytotoxic activity against B16F10 mouse melanoma cells
# [2] = test system: DA-3 cell line; assay: Cytotoxic activity against DA-3 mouse mammary adenocarcinoma cells
# [3] = test system: KB; assay: Cytotoxic activity against KBV vinblastine resistant KB cells; details: Homo sapiens
# [4] = test system: HT-29; assay: Cytotoxic activity against HT-29 human colon adenocarcinoma cells
# [5] = test system: KB; assay: Cytotoxic activity against KB human nasopharyngeal carcinoma cells
SMILES,IC50 [1] [nM],IC50 [2] [nM],IC50 [3] [nM],IC50 [4] [nM],IC50 [5] [nM]
COc1ccc(C[C@H]2NC(=O)/C=C/C[C@@H](C/C=C/c3ccccc3)OC(=O)[C@H](CC(C)C)OC(=O)[C@H](C)CNC2=O)cc1,> 10,> 10,> 10,> 10,> 10
COc1ccc(C[C@H]2NC(=O)/C=C/C[C@@H](C(O)/C=C/c3ccccc3)OC(=O)[C@H](CC(C)C)OC(=O)CCNC2=O)cc1 (stereo not given in full),> 10,> 10,> 10,> 10,> 10
COc1ccc(C[C@H]2NC(=O)/C=C/C[C@@H](C(=O)/C=C/c3ccccc3)OC(=O)[C@H](CC(C)C)OC(=O)[C@H](C)CNC2=O)cc1,> 10,> 10,> 10,> 10,> 10
COc1ccc(C[C@H]2NC(=O)/C=C/C[C@@H](C(=O)C#Cc3ccccc3)OC(=O)[C@H](CC(C)C)OC(=O)CCNC2=O)cc1,> 10,> 10,> 10,> 10,> 10
COc1ccc(C[C@H]2NC(=O)/C=C/C[C@@H](C(O)C#Cc3ccccc3)OC(=O)[C@H](CC(C)C)OC(=O)[C@@H](C)CNC2=O)cc1 (stereo not given in full),> 10,> 10,> 10,> 10,> 10
COc1ccc(C[C@H]2NC(=O)/C=C/C[C@@H](C(Br)C#Cc3ccccc3)OC(=O)[C@H](CC(C)C)OC(=O)[C@@H](C)CNC2=O)cc1 (stereo not given in full),> 10,> 10,> 10,> 10,> 10
COc1ccc(C[C@H]2NC(=O)/C=C/C[C@@H]([C@@](C)(O)C#Cc3ccccc3)OC(=O)[C@H](CC(C)C)OC(=O)CCNC2=O)cc1,> 10,> 10,> 10,> 10,> 10
COc1ccc(C[C@H]2NC(=O)/C=C/C[C@@H](C(C#Cc3ccccc3)OS(C)(=O)=O)OC(=O)[C@H](CC(C)C)OC(=O)[C@@H](C)CNC2=O)cc1 (stereo not given in full),> 10,> 10,> 10,> 10,> 10
COc1ccc(C[C@H]2NC(=O)/C=C/C[C@@H](CC#Cc3ccccc3)OC(=O)[C@H](CC(C)C)OC(=O)[C@@H](C)CNC2=O)cc1,> 10,> 10,> 10,> 10,> 10
COc1ccc(C[C@H]2NC(=O)/C=C/C[C@@H](C(C#Cc3ccccc3)OS(C)(=O)=O)OC(=O)[C@H](CC(C)C)OC(=O)CCNC2=O)cc1 (stereo not given in full),> 10,> 10,> 10,> 10,> 10
COc1ccc(C[C@H]2NC(=O)/C=C/C[C@@H](C(=O)/C=C/c3ccccc3)OC(=O)[C@H](CC(C)C)OC(=O)CCNC2=O)cc1,> 10,> 10,> 10,> 10,> 10
COc1ccc(C[C@H]2NC(=O)/C=C/C[C@@H](C(=O)/C=C/c3ccccc3)OC(=O)[C@H](CC(C)C)OC(=O)[C@H](C)CNC2=O)cc1Cl,> 10,> 10,> 10,> 10,> 10
COc1ccc(C[C@H]2NC(=O)/C=C/C[C@@H](C[C@H]3O[C@@H]3c3ccccc3)OC(=O)[C@H](CC(C)C)OC(=O)[C@H](C)CNC2=O)cc1,> 10,3,> 10,4,6
COc1ccc(C[C@H]2NC(=O)/C=C/C[C@@H](C(Br)C#Cc3ccccc3)OC(=O)[C@H](CC(C)C)OC(=O)[C@H](C)CNC2=O)cc1 (stereo not given in full),> 10,> 10,> 10,> 10,> 10
COc1ccc(C[C@H]2NC(=O)/C=C/C[C@@H]([C@@H](C)[C@H]3O[C@@H]3c3ccccc3)OC(=O)[C@H](CC(C)C)OC(=O)[C@H](C)CNC2=O)cc1,> 4,> 10,> 10,3,> 10
COc1ccc(C[C@H]2NC(=O)/C=C/C[C@@H](C(=O)C#Cc3ccccc3)OC(=O)[C@H](CC(C)C)OC(=O)[C@@H](C)CNC2=O)cc1,> 10,> 10,> 10,> 10,> 10
COc1ccc(C[C@H]2NC(=O)/C=C/C[C@@H](C(O)C#Cc3ccccc3)OC(=O)[C@H](CC(C)C)OC(=O)CCNC2=O)cc1 (stereo not given in full),> 10,> 10,> 10,> 10,> 10
COc1ccc(C[C@H]2NC(=O)/C=C/C[C@@H](C(C#Cc3ccccc3)OS(C)(=O)=O)OC(=O)[C@H](CC(C)C)OC(=O)[C@H](C)CNC2=O)cc1 (stereo not given in full),> 10,> 10,> 10,> 10,> 10
COc1ccc(C[C@H]2NC(=O)/C=C/C[C@@H](CCCc3ccccc3)OC(=O)[C@H](CC(C)C)OC(=O)CCNC2=O)cc1Cl,> 10,> 10,> 10,> 10,> 10
COc1ccc(C[C@H]2NC(=O)/C=C/C[C@@H](C/C=C/c3ccccc3)OC(=O)[C@H](CC(C)C)OC(=O)[C@H](C)CNC2=O)cc1Cl,> 10,> 10,> 10,> 10,> 10
COc1ccc(C[C@H]2NC(=O)/C=C/C[C@@H](C(Br)C#Cc3ccccc3)OC(=O)[C@H](CC(C)C)OC(=O)CCNC2=O)cc1 (stereo not given in full),> 10,> 10,> 10,> 10,> 10
COc1ccc(C[C@H]2NC(=O)/C=C/C[C@@H]([C@H](C)/C=C/c3ccccc3)OC(=O)[C@H](CC(C)C)OC(=O)[C@H](C)CNC2=O)cc1,> 10,> 10,> 10,> 10,> 10
COc1ccc(C[C@H]2NC(=O)/C=C/C[C@@H](C(O)/C=C/c3ccccc3)OC(=O)[C@H](CC(C)C)OC(=O)[C@H](C)CNC2=O)cc1 (stereo not given in full),> 10,> 10,> 10,> 10,> 10
COc1ccc(C[C@H]2NC(=O)/C=C/C[C@@H](C(=O)CCc3ccccc3)OC(=O)[C@H](CC(C)C)OC(=O)CCNC2=O)cc1,> 10,> 10,> 10,> 10,> 10
COc1ccc(C[C@H]2NC(=O)/C=C/C[C@@H]([C@@](C)(O)/C=C\c3ccccc3)OC(=O)[C@H](CC(C)C)OC(=O)CCNC2=O)cc1,> 10,> 10,> 10,> 10,> 10
COc1ccc(C[C@H]2NC(=O)/C=C/C[C@@H](C(O)CCc3ccccc3)OC(=O)[C@H](CC(C)C)OC(=O)CCNC2=O)cc1 (stereo not given in full),> 10,> 10,> 10,> 10,> 10
COc1ccc(C[C@H]2NC(=O)/C=C/C[C@@H]([C@](C)(O)C#Cc3ccccc3)OC(=O)[C@H](CC(C)C)OC(=O)CCNC2=O)cc1,> 10,> 10,> 10,> 10,> 10
